According to patent US20230183248A1, “PYRROLO[1,2-D][1,2,4]TRIAZINE-2-YL-ACETAMIDES AS INHIBITORS OF THE NLRP3 INFLAMMASOME PATHWAY” (JANSSEN PHARMACEUTICA NV, priority 2020, published 2023):

Columns and labels:
[1] = test system: IL-1β; experiment: PBMC assay: LPS-stimulated IL-1β release; format: cell-based; conditions: human PBMCs, 30 min compound pre-incubation, 100 ng/ml LPS for 6 hrs, supernatant, MSD
Procedure: (§1) Peripheral venous blood was collected from healthy individuals and human peripheral blood mononuclear cells (PBMCs) were isolated from blood by Ficoll-Histopaque (Sigma-Aldrich, A0561) density gradient centrifugation. After isolation, PBMCs were stored in liquid nitrogen for later use. Upon thawing, PBMC cell viability was determined in growth medium (RPMI media supplemented with 10% fetal bovine serum, 1% Pen-Strep and 1% L-glutamine). Compounds were spotted in a 1:3 serial dilution in DMSO and diluted to the final concentration in 30 µl medium in 96 well plates (Falcon, 353072). PBMCs were added at a density of 7.5 × 10^4 cells per well and incubated for 30 min in a 5% CO2 incubator at 37° C. LPS stimulation was performed by addition of 100 ng/ml LPS (final concentration, Invivogen, tlrl-smlps) for 6 hrs followed by collection of cellular supernatant and the analysis of IL-1β […] and TNF cytokines levels (µM) via MSD technology according to manufacturers’ guidelines (MSD, K151A0H).
(§2) The IC50 values (for IL-1β) and EC50 values (TNF) were obtained on compounds of the invention/examples, and are depicted in the following table: […]

[2] = test system: TNF; experiment: PBMC assay: LPS-stimulated TNF cytokine levels; format: cell-based; conditions: Homo sapiens, PBMC, human PBMCs, 30 min compound pre-incubation, 100 ng/ml LPS for 6 hrs, supernatant, MSD
Procedure: as §1, §2

Compound	IC50 ([1]; Homo sapiens, PBMC)	EC50 [2]	IC50 [1]
CC(C)c1nn(CC(=O)Nc2ccncn2)c(=O)c2cc(Cc3ccccc3)cn12 [Compound 75F]	> 10 µM	> 10 µM	
CC(C)c1nn(CC(=O)Nc2ccncn2)c(=O)c2cc(-c3c[nH]cn3)cn12 [Compound 94F, 2-(7-(1H-imidazol-4-yl)-4-isopropyl-1-oxopyrrolo[1,2-d][1,2,4]triazin-2(1H)-yl)-N-(pyrimidin-4-yl)acetamide]	> 10 µM	> 10 µM	
CC(C)c1nn(CC(=O)Nc2ccncn2)c(=O)c2cc(C(C)(C)O)cn12 [Compound 86F, 2-(7-(2-hydroxypropan-2-yl)-4-isopropyl-1-oxopyrrolo[1,2-d][1,2,4]triazin-2(1H)-yl)-N-(pyrimidin-4-yl)acetamide]	> 10 µM	> 10 µM	
COC(C)c1cc2c(=O)n(CC(=O)Nc3ccncn3)nc(C(C)C)n2c1 (centres unmarked) [Compound 88F]	7.08 µM	> 10 µM	9.06 µM
CC(C)c1nn(CC(=O)Nc2ccncn2)c(=O)c2cc(C#N)cn12 [Compound 42F]	> 10 µM	> 10 µM	
CC(C)c1cc2c(=O)n(CC(=O)Nc3ccncn3)nc(C(C)(C)O)n2c1 [Compound 37F, 2-[4-(1-hydroxy-1-methyl-ethyl)-7-isopropyl-1-oxo-pyrrolo[1,2-d][1,2,4]triazin-2-yl]-N-pyrimidin-4-yl-acetamide]	4.28 µM	> 10 µM	
CC(C)c1nn(CC(=O)Nc2ccncn2)c(=O)c2cc(Cl)cn12 [Compound 6F]	3.67 µM	> 10 µM	
COc1nn(CC(=O)Nc2ccncn2)c(=O)c2cc(C(C)C)cn12 [Compound 53F]	1.37 µM	> 10 µM	1.88 µM
CC(C)c1nn(CC(=O)Nc2ccncn2)c(=O)c2cc(CCC(F)(F)F)cn12 [Compound 33F, 2-[4-isopropyl-1-oxo-7-(3,3,3-trifluoropropyl)pyrrolo[1,2-d][1,2,4]triazin-2-yl]-N-pyrimidin-4-yl-acetamide]	3.62 µM	> 10 µM	
CC(C)c1nn(CC(=O)Nc2ccncn2)c(=O)c2cc(C3CNC3)cn12 [Compound 83F, 2-(7-(azetidin-3-yl)-4-isopropyl-1-oxopyrrolo[1,2-d][1,2,4]triazin-2(1H)-yl)-N-(pyrimidin-4-yl)acetamide]	> 10 µM	> 10 µM	
CC(C)c1nn(CC(=O)Nc2ccncn2)c(=O)c2cc(Br)cn12 [Compound 1F, 2-(7-bromo-4-isopropyl-1-oxo-pyrrolo[1,2-d][1,2,4]triazin-2-yl)-N-pyrimidin-4-yl-acetamide]	0.71 µM	> 10 µM	
CC(C)c1nn(CC(=O)Nc2ccncc2F)c(=O)c2cc(C(F)(F)F)cn12 [Compound 32F, N-(3-fluoro-4-pyridyl)-2-[4-isopropyl-1-oxo-7-(trifluoromethyl)pyrrolo[1,2-d][1,2,4]triazin-2-yl]acetamide]	1.5 µM	> 10 µM	
CC(C)c1cc2c(=O)n(CC(=O)Nc3ccncn3)nc(C3CNC3)n2c1 [Compound 45F]	> 10 µM	> 10 µM	
CC(C)c1nn(CC(=O)Nc2ccncn2)c(=O)c2cc(C(=O)N(C)C)cn12 [Compound 77F]	> 10 µM	> 10 µM	
CCc1nn(CC(=O)Nc2ccncn2)c(=O)c2cc(C3CC3)cn12 [Compound 20F]	0.59 µM	> 10 µM	
CC(C)c1nn(CC(=O)Nc2ccncn2)c(=O)c2cc(CO)cn12 [Compound 12F]	9.86 µM	> 10 µM	
CC(C)c1nn(CC(=O)Nc2ccncn2)c(=O)c2cc(-c3cn[nH]c3)cn12 [Compound 91F]	> 10 µM	> 10 µM	
CC(C)c1nn(CC(=O)Nc2ccncn2)c(=O)c2cc(I)cn12 [Compound 5F, 2-(7-iodo-4-isopropyl-1-oxo-pyrrolo[1,2-d][1,2,4]triazin-2-yl)-N-pyrimidin-4-yl-acetamide]		> 10 µM	
CC(C)c1cc2c(=O)n(CC(=O)Nc3ccc4nncn4c3)nc(C(C)C)n2c1 [Compound 69F]	0.28 µM		
CC(C)c1cc2c(=O)n(CC(=O)N[C@@H]3CCCN(C4CCC4)C3)nc(C(C)C)n2c1 [Compound 67F]		> 10 µM	

Second part, the compound after the results:

IC50 ([1]; Homo sapiens, PBMC)	EC50 [2]	IC50 [1]	Compound
> 10 µM	> 10 µM		CC(C)c1nn(CC(=O)Nc2ccncn2)c(=O)c2cc(CC3CCCOC3)cn12 (centres unmarked) [Compound 80F, 2-(4-isopropyl-1-oxo-7-((tetrahydro-2H-pyran-3-yl)methyl)pyrrolo[1,2-d][1,2,4]triazin-2(1H)-yl)-N-(pyrimidin-4-yl)acetamide]
> 10 µM	> 10 µM		CC(C)c1nn(CC(=O)Nc2ccncn2)c(=O)c2cc(CC3CCNCC3)cn12 [Compound 82F, 2-(4-isopropyl-1-oxo-7-(piperidin-4-ylmethyl)pyrrolo[1,2-d][1,2,4]triazin-2(1H)-yl)-N-(pyrimidin-4-yl)acetamide]
> 10 µM	> 10 µM		CC(C)c1nn(CC(=O)Nc2ccncn2)c(=O)c2cc(-c3cc[nH]n3)cn12 [Compound 92F]
0.89 µM	> 10 µM		CC(C)c1nn(CC(=O)Nc2ccncc2F)c(=O)c2cc(Br)cn12 [Compound 10F]
0.68 µM	> 10 µM		CCc1nn(CC(=O)Nc2ccncc2F)c(=O)c2cc(C3CC3)cn12 [Compound 21F]
5.04 µM	> 10 µM		COc1nn(CC(=O)NC2CCOCC2)c(=O)c2cc(C(C)C)cn12 [Compound 66F]
0.35 µM	> 10 µM		CC(C)c1cc2c(=O)n(CC(=O)Nc3ccncn3)nc(C(C)C)n2c1 [Compound 19F]
1.47 µM	> 10 µM		CCCCc1nn(CC(=O)N[C@H]2C[C@@](C)(O)C2)c(=O)c2cc(C(C)C)cn12 [Compound 60F]
8.26 µM	> 10 µM		CC(C)c1nn(CC(=O)Nc2ccncn2)c(=O)c2cc(C(C)(C)F)cn12 [Compound 87F, 2-(7-(2-fluoropropan-2-yl)-4-isopropyl-1-oxopyrrolo[1,2-d][1,2,4]triazin-2(1H)-yl)-N-(pyrimidin-4-yl)acetamide]
0.25 µM	> 10 µM		CC(C)c1nn(CC(=O)Nc2ccncc2F)c(=O)c2cc(I)cn12 [Compound 4F, N-(3-fluoro-4-pyridyl)-2-(7-iodo-4-isopropyl-1-oxo-pyrrolo[1,2-d][1,2,4]triazin-2-yl)acetamide]
> 10 µM			CC(C)c1nn(CC(=O)Nc2ccncn2)c(=O)c2cc(CC3CC(=O)N(C)C3)cn12 (centres unmarked) [Compound 81F]
3.84 µM	> 10 µM		CC(C)Cc1cc2c(=O)n(CC(=O)Nc3ccncn3)nc(C(C)C)n2c1 [Compound 34F, 2-(7-isobutyl-4-isopropyl-1-oxo-pyrrolo[1,2-d][1,2,4]triazin-2-yl)-N-pyrimidin-4-yl-acetamide]
8.13 µM	> 10 µM		CCOC(C)c1nn(CC(=O)Nc2ccncn2)c(=O)c2cc(C(C)C)cn12 (centres unmarked) [Compound 40F]
> 10 µM	> 10 µM		CC(C)c1nn(CC(=O)Nc2ccncn2)c(=O)c2cc(-c3ccn(C)n3)cn12 [Compound 90F]
4.24 µM	> 10 µM		CC(C)c1nn(CC(=O)Nc2cccnc2)c(=O)c2cc(Br)cn12 [Compound 8F]
2.33 µM	> 10 µM		CC(C)c1nn(CC(=O)Nc2ccncn2)c(=O)c2cc(CCCF)cn12 [Compound 78F, 2-(7-(3-fluoropropyl)-4-isopropyl-1-oxopyrrolo[1,2-d][1,2,4]triazin-2(1H)-yl)-N-(pyrimidin-4-yl)acetamide]
> 10 µM	> 10 µM		CC(C)c1cc2c(=O)n(CC(=O)Nc3ccncn3)nc(N3CCOCC3)n2c1 [Compound 25F]
0.99 µM	> 10 µM		CC(C)c1nn(CC(=O)Nc2ccncn2)c(=O)c2cc(C3CCC3)cn12 [Compound 30F, 2-(7-cyclobutyl-4-isopropyl-1-oxo-pyrrolo[1,2-d][1,2,4]triazin-2-yl)-N-pyrimidin-4-yl-acetamide]
4.31 µM	> 10 µM		CC(C)c1nn(CC(=O)Nc2ccncn2)c(=O)c2cc(C(C)F)cn12 (centres unmarked) [Compound 39F, 2-[7-(1-fluoroethyl)-4-isopropyl-1-oxo-pyrrolo[1,2-d][1,2,4]triazin-2-yl]-N-pyrimidin-4-yl-acetamide]
> 10 µM	> 10 µM		CC(C)c1nn(CC(=O)Nc2ccncn2)c(=O)c2cc(-c3cn(C)cn3)cn12 [Compound 93F, 2-(4-isopropyl-7-(1-methyl-1H-imidazol-4-yl)-1-oxopyrrolo[1,2-d][1,2,4]triazin-2(1H)-yl)-N-(pyrimidin-4-yl)acetamide]
> 10 µM	> 10 µM		CC(C)c1nn(CC(=O)Nc2ccncn2)c(=O)c2cc(C3CCNCC3)cn12 [Compound 84F, 2-(4-isopropyl-1-oxo-7-(piperidin-4-yl)pyrrolo[1,2-d][1,2,4]triazin-2(1H)-yl)-N-(pyrimidin-4-yl)acetamide]
1.13 µM	> 10 µM		C=Cc1cc2c(=O)n(CC(=O)Nc3ccncn3)nc(C(C)C)n2c1 [Compound 17F]
> 10 µM	> 10 µM		CNCc1cc2c(=O)n(CC(=O)Nc3ccncn3)nc(C(C)C)n2c1 [Compound 44F]
> 10 µM	> 10 µM		CC(C)c1nn(CC(=O)Nc2ccncn2)c(=O)c2cc(-c3cnn(C)c3)cn12 [Compound 89F, 2-(4-isopropyl-7-(1-methyl-1H-pyrazol-4-yl)-1-oxopyrrolo[1,2-d][1,2,4]triazin-2(1H)-yl)-N-(pyrimidin-4-yl)acetamide]
